Experimental data published in paper PMC7112222, “Investigation of pyrimidine nucleoside analogues as chemical probes to assess compound effects on the proliferation of Trypanosoma cruzi intracellular parasites” (PLoS Neglected Tropical Diseases, 2020).
Counter-ions that a name gives are not always drawn. Like-named read-outs stand apart in the source and are kept apart here.

Legend:
[1] = test system: T. cruzi intracellular amastigotes; set-up: method as in PMID 27120069; conditions: treatment for 48 hours; cited from earlier work
[2] = test system: HEK293 cells; test: Redox-based assay to assess HEK293 viability; assay type: cell-based, human; conditions: 48 hours exposure; highest test concentration 87 μM; EdU value estimated, relative to Emax plateau of 57%
Experimental: To determine the effect of the nucleoside analogues against a replicating mammalian cell line, analogues were tested against HEK293 cells, utilising a REDOX-based metabolic assay to assess cell viability as previously described. […] Experiments were performed over two biological replicates.

[3] = test system: T. cruzi amastigote DNA; test: Incorporation of pyrimidine nucleoside analogues into T. cruzi amastigote DNA (click chemistry, colocalisation with Hoechst); assay type: cell-based, Trypanosoma cruzi
Experimental: T. cruzi infected 3T3 fibroblasts were initially exposed to nucleoside analogues for 48 hours at concentrations ranging from 73 μM to 1.8 x10^-4 μM. Host cell, parasite and compound additions were carried out as previously described. Cells were then stained using a click chemistry azide cocktail, followed by Hoechst to identify nuclear material, as previously reported. The freshly prepared azide cocktail consisted of a final concentration of 5 μM of Alexa Fluor 488 azide (Thermo Fisher Scientific, USA), 1 mM copper sulfate (Sigma Aldrich, USA) and 100 mM sodium ascorbate (Sigma Aldrich, USA), in DPBS. Wells were imaged on an Opera image-based reader (Perkin Elmer, USA) at 20x magnification with 405 nm (defined as Hoechst channel) and 488 nm (defined as Alexa 488 channel) lasers using filter sets/bandwidth (emission) of 450/50 nm and 540/75 nm, respectively. To determine nucleoside analogue incorporation into T. cruzi amastigote DNA, a script was developed utilising the Columbus (PerkinElmer, USA) image-based analysis and data handling platform (CHEMICAL LABEL INCORPORATION SCRIPT). Nucleoside analogues were also tested for DNA incorporation following 2, 4 and 24 hours exposure, at the same concentrations. All experiments were performed in duplicate. The colocalisation of nucleoside analogues and Hoechst (replicating parasites) at each time point (48, 4 and 2 hours) was compared using GraphPad Prism 5.
A CHEMICAL LABEL INCORPORATION SCRIPT developed in Columbus firstly identified Hoechst stained parasites within host cells by spot analysis, utilizing the same building block analysis as we had previously developed to determine T. cruzi infected cells. The physical definition of amastigote DNA was identified by Hoechst, with the only modification being that as there was no cytoplasmic marker, thus segmentation borders in the Hoechst channel were applied, which effectively separated host cells (Fig 2). Further building blocks were added to calculate the intensity of Alexa Fluor 488 within the spots identified by Hoechst, in infected cells. This script was first applied to images to determine the mean fluorescence intensity in the Alexa 488 channel of Hoechst identified parasites, without the addition of the chemical label. The mean plus three times the standard deviation of this intensity was used to define values above background, thus the minimum intensity above background required to identify parasite DNA which successfully incorporated the chemical label. An input box was incorporated into the script, in which this minimum intensity above background was entered. Parameters of the developed script, “CHEMICAL LABEL INCORPORATION” are shown in S1 Table.
• Number of T. cruzi amastigote infected cells (≥5 parasites per cell, identified with Hoechst). • Number of Hoechst identified T. cruzi parasites (in infected cells). • Number of parasites incorporating chemical label (T. cruzi parasites with Alexa 488 intensity above background, in infected cells). • % chemical label incorporation. Alexa 488 spots in infected cells (above background) NO / Hoechst spots in infected cells NO *100 = Percentage colocalisation; where NO = number of objects. • Number of host cells.

[4] = test system: 3T3 cells; test: Image-based assay, effect on 3T3 host cells; assay type: cell-based
Experimental: (§1) Parasites and host cells were maintained as outlined previously. Briefly, host 3T3 fibroblasts (ATCC, CCL-92) were grown in RPMI medium (Thermo Fisher Scientific, USA) with no phenol red, supplemented with 10% FBS (Thermo Fisher Scientific, USA) and incubated at 37°C in 5% CO2. Host cells were harvested at 70% confluency and were split every 2–3 days in 175 cm^2 flasks. 3T3 cells were cultured up to passage 7 as contact inhibition was reduced or lost at higher passages. Prior to infection with T. cruzi trypomastigotes, host cells were seeded at 1.2 x 10^6 cells in 75 cm^2 or 4 x 10^5 cells in 25 cm^2 flasks and grown for 24 hours before parasite addition. Parasites were added at a multiplicity of infection (MOI) of 10:1 and incubated for 24 hours before non-infected trypomastigotes were washed off the host cell bed with PBS supplemented with Ca^2+ and Mg^2+ (Thermo Fisher Scientific, USA). Incubation was continued for a further 3 days, until tissue culture trypomastigotes began to egress from host cells. Egressed parasites were used for assays or to continue the infective life cycle in vitro.
[…] Briefly, 14-point serial dilutions of the compounds in 100% DMSO were prepared and then further diluted in sterile water at a ratio of 1:21 compound: water. Five microliters of the diluted compounds were added to wells of T. cruzi infected host cells, using a MiniTrak compound handling device (Perkin Elmer, USA) with final concentrations in the plate ranging from 183 μM to 4.6 x 10^−4 μM. All experiments were performed with two separate biological replicates.
Image analysis was performed with a script developed in Columbus software (CHEMICAL LABEL INCORPORATION SCRIPT). Control wells were also imaged at an increased, 60x magnification to show the distribution of staining and the structure of the parasites within host cells. Eight background control wells consisted of infected host cells, fixed and exposed to Hoechst and the click chemistry cocktail, without the addition of the chemical probe EdU. […] The percentage activity of compounds against parasite number / infected cells (identified with Hoechst) was calculated against a positive control of 12 μM of NFX for the parasite and 30 μM of PURO the host cells; and a negative control of 0.47% DMSO. All images taken were not modified and were taken on an Opera, confocal image-based reader.

[5] = test system: T. cruzi intracellular amastigotes; test: Image-based assay of the number of T. cruzi infected cells (intracellular amastigotes in 3T3 host cells); assay type: cell-based, Trypanosoma cruzi; conditions: for IC50: highest test concentration 183 μM
Experimental: as §1
The activity of the nucleoside analogues against T. cruzi intracellular amastigotes following 24, 48 hours exposure and compound wash off, was determined using image-based techniques as previously described. Briefly, 14-point serial dilutions of the compounds in 100% DMSO were prepared and then further diluted in sterile water at a ratio of 1:21 compound: water. Five microliters of the diluted compounds were added to wells of T. cruzi infected host cells, using a MiniTrak compound handling device (Perkin Elmer, USA) with final concentrations in the plate ranging from 183 μM to 4.6 x 10^−4 μM. All experiments were performed with two separate biological replicates.
IC50 values for inhibitory activity of both the nucleoside analogues tested as DNA probes and known inhibitors tested to determine their effect on replication of T. cruzi were calculated in GraphPad Prism 5, using sigmoidal dose response with variable slope. […] The p-value for difference in the % activity at Emax concentrations for compounds with known activity (EdU identified parasites, compared to Hoechst identified parasites) against T. cruzi was determined using GraphPad Prism 5, using an unpaired student’s t-test. […] The Emax for each compound was at least two data points in from the beginning of the plateau of activity in the IC50 curve, as previously described.

[6] = test system: T. cruzi intracellular amastigotes; test: as above; assay type: cell-based, Trypanosoma cruzi; conditions: 2 and 4 hour exposures; 73 μM

| Structure (SMILES) | T. cruzi infected cells, identified with Hoechst, remaining [1] [%] | HEK293 IC50 value [2] | % of parasites with incorporation ([3]; 2 hours, 37 μM) [%] | % of parasites with incorporation ([3]; 4 hours, 7.3 μM) [%] | incorporation into T. cruzi DNA following 48 hours incubation (in words) ([3]; 48 hours incubation) | % of cells that incorporated the DNA chemical label ([3]; 48 hours, 0.73 μM) [%] | activity against host cells after short exposure ([4]; 2 and 4 hour exposures, 73 μM) | Host cell 3T3 IC50 value 48 h ([4]; 48 h, highest test concentration 183 μM) | activity against 3T3 cells in the image-based assay ([4]; 48 hours) [%] | SI (selectivity index to T. cruzi intracellular amastigotes in relation to HEK293 cells) ([5]; 48 hours exposure) | inhibition at 183 µM ([5]; Trypanosoma cruzi, at 183 μM, 48 hours incubation, wash off, further 72 hours, read-out: T. cruzi Wash off percentage inhibition at the highest test concentration) [%] | IC50 ([5]; Trypanosoma cruzi, 24 hours exposure, read-out: T. cruzi 24 IC50 value) [µM] | Emax ([5]; Trypanosoma cruzi, 24 hours exposure, read-out: T. cruzi 24 relative Emax (in brackets) (converted)) [%] | IC50 ([5]; Trypanosoma cruzi, 48 hours incubation, read-out: T. cruzi 48 IC50 value) [µM] | Emax ([5]; Trypanosoma cruzi, 48 hours incubation, read-out: T. cruzi 48 relative Emax (in brackets) (converted)) [%] | activity against T. cruzi amastigote growth after short exposure [6] |
| --- | --- | --- | --- | --- | --- | --- | --- | --- | --- | --- | --- | --- | --- | --- | --- | --- |
| CN1CCC[C@@H]1CCO[C@](C)(c1ccccc1)c1ccc(Cl)cc1 [CF, clemastine fumarate] | 3 | – | – | – | – | – | – | – | – | – | – | – | – | – | – | – |
| C#Cc1cn([C@H]2C[C@H](O)[C@@H](CO)O2)c(=O)nc1N [EdC, 5-ethynyl-2′-deoxy-cytidine] | – | NA (NA = ≤50% activity at the highest concentration tested and an IC50 value could not be determined) | 71 ± 2.9 | 84 ± 3.5 | incorporated | 89 ± 2.7 | less than 20% | NA (NA = ≤50% activity at the highest concentration tested and an IC50 value could not be determined) | < 20 | > 26 | 90 | 12.5 ± 2 | 69 | 7.1 ± 3.7 | 87 | less than 20% |
